Entries after “also recorded” stand apart in the source; their conditions may differ. {PPP} = triphosphate

For data set [1], the system named is B16-F10 melanoma cell line. Kind of data set: PRR tolerance: IFN-β production by pretreated B16-F10 cells after secondary treatment. The format is cell-based, mouse. The note with it: FIG. 8; for IFN-β production after secondary treatment, cells pretreated with the substance versus control: pretreatment at sublethal dose overnight, then pIC/DF complex 0.6 μg/ml; for IFN-β production, cells pre-treated with mixture of 1-MT and CH223191 versus DMSO: substance given as mixture of IDO inhibitor and AHR inhibitor. On the procedure:
(§1) In addition to prior activation of MDA5, prior activation of TLR4, RIG-I, and STING induced self- and cross-tolerance of same and different PRRs.
(§2) In particular, mouse pancreatic cancer cell line PANC-02 and melanoma cell line B16-F10 were pretreated with dH2O, MDA5 agonist (pIC/DF complex), or TLR4 agonist (HMGB1) in the presence of dimethyl sulfoxide (DMSO) (vehicle control), CH223191 (AHR inhibitor), 1-MT (IDO inhibitor), or L-Kyn (AHR activator). After overnight incubation, the cells were replenished with fresh culture media and treated with pIC/DF complex (0.6 μg/ml). One day after second treatment, IFN-β production was measured using ELISA. (n=3).

The subject of data set [2] is PANC-02 mouse pancreatic cancer cell line. Put plainly: PRR tolerance: IFN-β production by pretreated PANC-02 cells after secondary treatment. Conditions: FIG. 8; for IFN-β production after secondary treatment, cells pretreated with the substance versus control: pretreatment at sublethal dose overnight, then pIC/DF complex 0.6 μg/ml; for IFN-β production, cells pre-treated with mixture of 1-MT and CH223191 versus DMSO: substance given as mixture of IDO inhibitor and AHR inhibitor. The format is cell-based. The procedure:
as §1, §2

Data set [3] deals with B16-F0 mouse melanoma cells. Put plainly: IFN-β production (ELISA) by B16-F0 cells. Format: cell-based. The note with it: ELISA; for IFN-β production after first and second transfection: 12.5 nM, DharmaFECT, one day after first and second transfection. The procedure:
(§3) B16-F0 and B16-F10 mouse melanoma cells lines are originated from the same parental cell line but they have different metastatic ability. B16-F0 cell line has no or marginal metastatic ability but B16-F10 cell line has potent metastatic ability. B16-F0 and B16-F10 cells (1×10^4) were treated with RIG-I agonist ICR4-liposome complex (0.6 μg/ml). After overnight incubation, cytotoxicity and IFN-β production by the cells were measured using MTT assay and ELISA, respectively. […] Tumor suppressor proteins, such as programmed cell death 4 (PDCD4) and phosphatase and tensin homolog (PTEN), and pre-miR-21 levels in B16-F0 and B16-F10 cells were measured using real-time qPCR. […] It was hypothisized that miR-21 would interfere with antitumor effects of RIG-I agonists in B16-F10 melanoma cells.
B16-F0 mouse melanoma cells were transfected with ICR4, RigantmiR-21, mutant RigantmiR-21, or anti-miR-21 at 12.5 nM using DharmaFECT (DF). After overnight incubation, the cells were replenished with fresh culture media, followed by another transfection with the same dose of RNAs. One day after the first and second transfection, IFN-β production by these cells were determined using ELSIA.
B16-F0 mouse melanoma cells or bone marrow-derived dendritic cells (BM-DCs) were transfected once (x1) or twice (x2) with a complex of polyI:C (pIC) (0.6 μg/ml) and transfection agent jet-PEI. IFN-β production by the cells one day after each transfection was determined using ELISA.
(ELISA stands for enzyme-linked immunosorbent assay.)

Data set [4] relates to B16-F0 mouse melanoma cells. Put plainly: Cytotoxicity (MTT assay) in B16-F0 cells. The format is cell-based. The note with it: for cytotoxic effects after repeated treatments: two transfections at various concentrations, DharmaFECT, MTT three days after first transfection. The procedure: as §3
B16-F0 mouse melanoma cells were transfected with ICR4, RigantmiR-21, mutant RigantmiR-21, or anti-miR-21 at various concentrations using DharmaFECT (DF). After overnight incubation, the cells were replenished with fresh culture media, followed by another transfection with the same dose of RNAs. Three days after the first transfection, cytotoxicity levels were measured using MTT assay.
Background: Tetrazolium assays rely on reduction of a dye to a coloured formazan, in cell work by metabolically active cells.

The subject of data set [5] is mouse pancreatic, adenocarcinoma, and sarcoma cells. Kind of data set: Antitumor activities in mouse pancreatic cancer and sarcoma cells (overall statements). The note with it: FIGS. 4A-4C. The format is cell-based. On the procedure:
The antitumor effects of RigantmiR-21 are not limited to melanoma cells. KPC-4839 (mouse pancreatic ductal adenocarcinoma), PANC-02 (mouse pancreatic adenocarcinoma) and mouse sarcoma cell line cells were transfected with indicated ICR4, RigantmiR-21, mutant RigantmiR-21, or anti-miR-21 (0.6 μg/ml) using DharmaFECT (DF). After overnight incubation, IFN-β production by these cells was determined using ELSIA. (n=3). As shown in FIGS. 4A-4C, RigantmiR-21 treatments induced cell death and IFN-β production by mouse pancreatic, adenocarcinoma, and sarcoma cells that are also resistant to RIG-I agonist ICR4.

The test system of data set [6] is B16-F10 mouse melanoma cells. Kind of data set: IFN-β production (ELISA) by B16-F10 cells. The note with it: for IFN-β production compared to ICR2 and ICR2AS conjugated with seed mutant anti-miR-21: FIG. 6B, n=3. Format: cell-based. On the procedure:
as §3
To improve therapeutic effects of RIG-I agonists in B16-F10 cells, we designed and generated a novel RIG-I-activating RNA molecule (named RigantmiR-21) that is composed of a RIG-I-activating RNA structure (ICR4: 5′ppp-containg double stem-loop RNA) and a complementary sequence to mature miR-21. B16-F10 melanoma cells were transfected once or twice with RigantmiR-21, mutant RigantmiR-21, anti-miR-21, or ICR4 (0.6 μg/ml) using liposomal transfection agent DharmaFECT (DF). The expression of miR-21 target genes was determined using qPCR. IFN-β production was determined using ELISA. […] Anti-miR-21, ICR4, and RigantmiR-21 RNAs were complexed with in vivo transfection agent jet-PEI. Jet-PEI alone or RNA-jet-PEI complexes (25 μg) were injected thrice intratumorally into B16-F10 melanoma-bearing immunocompetent mice. (n=6).
Additionally, conjugation of anti-miR-21 improved the ability of other types of RIG-I agonists, such as ICR2 and ICR2AS^4 (sequences shown in FIG. 6A) to induce IFN-β production by cancer cells.

The next data set has as its system Mouse BM-DCs. Kind of data set: PRR tolerance: IFN-β production by pretreated BM-DCs after secondary treatment. Conditions: pretreatment overnight, then cytoplasmic PRR agonists; FIG. 9A. The format is cell-based. The procedure: as §1
(§4) Mouse BM-DCs were treated with pIC/DF complex (cytoplasmic MDA5), ICR4/DF complex (cytoplasmic RIG-I), 2′3′-cGAMP (cytoplasmic STING), or transfection agent DF alone (FIG. 9A). Mouse macrophage cells were treated with dH2O (control), LPS (surface TLR4), or HMGB1 (surface TLR4), followed by treatment with DMSO (control) or mixture of CH223191 (AHR inhibitor) and 1-MT (IDO inhibitor) (FIG. 9B). After overnight incubation, the cells were replenished with fresh culture media and treated with indicated cytoplasmic PRR agonists. Levels of IFN-β production were measured using ELISA. □ P<0.05.

In data set [7] the test system is B16-F10 mouse melanoma cells. Put plainly: Cytotoxicity (MTT assay) in B16-F10 cells. Format: cell-based. The note with it: ICR4-liposome complex 0.6 μg/ml, overnight incubation. The procedure:
as §3

Data set [8] has as its system Human and murine cancer cell lines and human normal cells. Kind of data set: Cytotoxicity (MTT assay) in cancer cell lines and normal cells. The format is cell-based. The note with it: transfected 0.8 mg/ml, 72 h after treatment, FIG. 2. The procedure: Human and murine cancer cell lines and human normal cells in 96-well plate (7000 cells/well) were transfected with RIG-I agonist 5′ppp ssRNA ICR4 ([…]). Cells were harvested 72 h after treatment and analyzed for cytotoxicity using MTT assay. N=3. *, P<0.05.

A further data set concerns Mouse macrophage cells. Put plainly: PRR tolerance: IFN-β production by pretreated macrophages after secondary treatment. The format is cell-based. The note with it: for IFN-β production, cells pre-treated with mixture of 1-MT and CH223191 versus DMSO: substance given as mixture of IDO inhibitor and AHR inhibitor, FIG. 9; for IFN-β production after secondary treatment, cells pretreated with the substance versus control: pretreatment overnight, then cytoplasmic PRR agonists, FIG. 9B. On the procedure: as §1, §4

For data set [9], the system named is 4T1 mouse breast cancer cells, B16-F10 mouse melanoma cells, 403688 mouse sarcoma cells, and WM266.4 human melanoma cells. Kind of data set: IFN-β production (ELISA) by different cancer cells after first and second transfection with RIG-I agonists. Format: cell-based. Conditions: DharmaFECT, one day after first and second transfection; FIG. 11. The procedure: 4T1 mouse breast cancer cells, B16-F10 mouse melanoma cells, 403688 mouse sarcoma cells, and WM266.4 human melanoma cells were transfected with indicated RIG-I agonists using liposomal transfection agent DharmaFECT (DF). After overnight incubation, the cells was replenished with fresh culture media, followed by another transfection with the same RIG-I agonists. One day after first and second transfection IFN-β production by these cells were determined using ELSIA.

Consider `Nc1ccccc1C(=O)CC(N)C(=O)O` (stereo not shown) [Kyn, kynurenine], for which the “IFN-β production after secondary treatment, cells pretreated with the substance versus control” value in [1] and in data set [2] was “significantly decreased” in each case.
Take “ICR4: immunogenic cell-killing RNA RIG-I agonist, 5′ppp-containing double stem-loop ssRNA; SEQ ID NO: 1 (GGAUGCGGUACCUGACAGCAUCCUAAACUCAUGGUCCAUGUUUGUCCAUGGACCA; RNA, 5' {PPP}, backbone not given here; double stem-loop single-stranded RNA) [reference compound]”: the “IFN-β production after first and second transfection” value in data set [3] is “significantly reduced and not”. Besides, the IFN-β production entry in data set [3] (ICR4-liposome complex 0.6 μg/ml, overnight incubation) was “underwent cell death and IFN-β production”; in data set [6] (ICR4-liposome complex 0.6 μg/ml, overnight incubation, ELISA), “underwent cell death and IFN-β production”. Besides, in [4] (0.6 μg/ml, overnight, FIGS. 1A and 1B), the “sensitivity to antitumor effects, B16-F0 cell line compared with B16-F10 cell line” value is “much more sensitive”. The “cytotoxicity (cell death)” value in data set [4] (ICR4-liposome complex 0.6 μg/ml, overnight incubation, MTT assay) is “underwent cell death and IFN-β production”; in data set [7], “underwent cell death and IFN-β production”. In addition, in data set [4], the “cytotoxic effects after repeated treatments” value is on record as “gradually augmented”. The “response of the cells to the RIG-I agonist (resistance)” value in data set [5] is “resistant”. The “IFN-β production after secondary treatment, cells pretreated with the substance versus control” value in the data set on Mouse BM-DCs is on record as “significantly decreased”. Besides, the “% cytotoxicity, cancer versus normal cells” value in data set [8] is recorded as “differentially sensitive; also recorded: Differential sensitivity”.
Turning to `Cc1ccccc1N=Nc1ccc(NC(=O)c2ccnn2C)c(C)c1` [CH223191], the “IFN-β production, cells pre-treated with mixture of 1-MT and CH223191 versus DMSO” value (in data set [1]; in data set [2]; in the data set on Mouse macrophage cells) was “significantly increased” each time.
For the molecule lipopolysaccharide [LPS], the “IFN-β production after secondary treatment, cells pretreated with the substance versus control” value in the data set on Mouse macrophage cells is given as “significantly decreased”.
On to “ICR2-anti-miR-21: RIG-I agonist ICR2 conjugated with anti-miR-21; SEQ ID NO: 7 (GGAUGCGGUACCUGACAGCAUCCUCAACAUCAGUCUGAUAAGCUA; listed as RNA, further chemistry not given here)”, for which, in data set [6], the “IFN-β production compared to ICR2 and ICR2AS conjugated with seed mutant anti-miR-21” value is “increased induction”.
Turning to “ICR2AS-anti-miR-21: RIG-I agonist ICR2AS conjugated with anti-miR-21; SEQ ID NO: 9 (GGAUGCUGUCAGGUACCGCAUCCUCAACAUCAGUCUGAUAAGCUA; listed as RNA, further chemistry not given here)”, in data set [6], the “IFN-β production compared to ICR2 and ICR2AS conjugated with seed mutant anti-miR-21” value was “increased induction”.
Take `Nc1nc2c(ncn2[C@@H]2O[C@@H]3COP(=O)(O)O[C@H]4[C@@H](O)[C@H](n5cnc6c(N)ncnc65)O[C@@H]4COP(=O)(O)O[C@@H]2[C@@H]3O)c(=O)[nH]1` [2′3′-cGAMP]: in the data set with Mouse BM-DCs, the “IFN-β production after secondary treatment, cells pretreated with the substance versus control” value is reported as “significantly decreased”.
Take `Cn1cc(C[C@H](N)C(=O)O)c2ccccc21` [1-MT, 1-methyl tryptophan]: the “IFN-β production, cells pre-treated with mixture of 1-MT and CH223191 versus DMSO” value (in [1]; in data set [2]; in the data set on Mouse macrophage cells) was “significantly increased” in each case.

B1: RigantmiR-146a: nucleic acid molecule comprising a RIG-I agonist sequence and a miR-146a antagonist sequence; SEQ ID NO: 4 (nucleic acid)
chain: GGAUGCGGUACCUGACAGCAUCCUCCCCCGCAUUCCAUGGUCAACCCAUGGAAUUCAGUUCUCA
modifications: listed as RNA, chemistry not given here
Consider B1, for which, in data set [9], the “IFN-β production by different cancer cells” value is “differentially induce”.

B2: mutant RigantmiR-21: composed of ICR4 and a non-complementary sequence to miR-21; SEQ ID NO: 3 (nucleic acid)
chain: GGAUGCGGUACCUGACAGCAUCUUGAAAUAAGGACUGAUGCUCAACAUCAGUCUGACACUCCA
modifications: chemistry not fully specified
As for B2, the “IFN-β production after first and second transfection” value in [3] was “significantly reduced”. Moreover, the “cytotoxic effects after repeated treatments” value in data set [4] is reported as “gradually augmented”.

B3: high mobility group box 1 (protein, UniProt P09429 1-215, looked up)
High mobility group protein B1: MGKGDPKKPRGKMSSYAFFVQTCREEHKKKHPDASVNFSEFSKKCSERWKTMSAKEKGKFEDMAKADKARYEREMKTYIPPKGETKKKFKDPNAPKRPPSAFFLFCSEYRPKIKGEHPGLSIGDVAKKLGEMWNNTAADDKQPYEKKAAKLKEKYEKDIAAYRAKGKPDAAKKGVVKAEKSKKKKEEEEDEEDEEDEEEEEDEEDEDEEEDDDDE
notes: TLR4 agonist protein
For B3, the “IFN-β production after secondary treatment, cells pretreated with the substance versus control” value (in data set [1]; in data set [2]; in the data set on Mouse macrophage cells) was “significantly decreased” throughout.
